From patent US20070072897A1, “Phenylaminopropanol derivatives and methods of their use” (Wyeth, priority 2005, published 2007) come the findings set out here.

For one test, the target named is T1, human hNET (Homo sapiens, UniProt P23975).
T1 construct: expressed in transfected cells; host or cells: MDCK (MDCK-Net6)
The test can be described thus: Norepinephrine (NE) uptake assay in MDCK-Net6 cells. The test is classed as cell-based. The settings on record: [3H]NE uptake; for EC50: MDCK-Net6 cells stably transfected with hNET; for inhibition at 1 µM: MDCK-Net6 cells, read-out: hNET Percentage inhibition at 1 μM.

The next test deals with T2, human 5-HT2A receptor (Homo sapiens, UniProt P28223).
T2 construct: expressed in transfected cells; host or cells: CHO
T2 sequence (P28223 whole entry): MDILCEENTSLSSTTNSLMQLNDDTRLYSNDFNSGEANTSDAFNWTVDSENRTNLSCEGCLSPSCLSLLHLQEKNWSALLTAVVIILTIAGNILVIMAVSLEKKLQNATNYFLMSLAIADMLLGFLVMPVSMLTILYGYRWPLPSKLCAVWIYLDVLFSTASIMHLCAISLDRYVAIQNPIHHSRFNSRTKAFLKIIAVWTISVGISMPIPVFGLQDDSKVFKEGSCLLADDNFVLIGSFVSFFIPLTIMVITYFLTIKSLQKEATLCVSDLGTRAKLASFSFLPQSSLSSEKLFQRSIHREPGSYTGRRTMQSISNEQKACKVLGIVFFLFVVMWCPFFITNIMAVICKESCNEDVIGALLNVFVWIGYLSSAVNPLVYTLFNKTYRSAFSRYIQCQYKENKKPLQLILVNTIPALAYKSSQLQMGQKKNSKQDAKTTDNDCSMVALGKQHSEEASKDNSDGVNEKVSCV
The test can be described thus: 5-HT2A FLIPR assay (calcium response to DOI) in CHO cells. The test is classed as cell-based. Particulars: for inhibition at 1 µM: CHO, read-out: 5-HT2A Percentage inhibition at 1 μM; for IC50: antagonist inhibition of 3 nM DOI stimulation, CHO cells, FLIPR. The procedure, abridged:
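CHO cells loaded with calcium dye in HBSS/20 mM HEPES; FLIPR fluorescence recorded after compound addition (10^−10–10^−5 M) for 2 min to detect agonism, then after 3 nM DOI challenge for 5 min for antagonism. Data log transformed before analysis.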

Where a name gives a salt, the structure may show the parent alone.

T1 sequence (P23975 whole entry): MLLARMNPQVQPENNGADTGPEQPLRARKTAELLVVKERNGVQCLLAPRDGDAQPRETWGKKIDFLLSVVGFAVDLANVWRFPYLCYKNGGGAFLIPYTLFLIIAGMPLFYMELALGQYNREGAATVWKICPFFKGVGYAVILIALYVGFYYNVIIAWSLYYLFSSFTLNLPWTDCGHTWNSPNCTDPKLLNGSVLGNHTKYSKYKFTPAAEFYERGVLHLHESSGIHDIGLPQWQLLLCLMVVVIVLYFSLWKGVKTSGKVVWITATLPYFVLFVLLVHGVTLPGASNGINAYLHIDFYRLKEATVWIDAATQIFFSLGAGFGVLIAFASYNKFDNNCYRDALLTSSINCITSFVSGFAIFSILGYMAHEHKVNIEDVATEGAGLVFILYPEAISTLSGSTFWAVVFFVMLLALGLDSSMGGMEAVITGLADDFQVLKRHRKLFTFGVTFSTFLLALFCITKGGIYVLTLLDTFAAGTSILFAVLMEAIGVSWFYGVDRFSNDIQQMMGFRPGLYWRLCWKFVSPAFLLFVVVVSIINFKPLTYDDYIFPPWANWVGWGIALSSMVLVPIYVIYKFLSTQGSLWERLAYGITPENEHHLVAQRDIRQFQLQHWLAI

As a reminder, the EC50 is the concentration at which the effect is half-maximal. Higher therefore signals a need for much substance. As a reminder, the inhibition is the percentage by which the read-out fell short of the control. On human hNET, `CNC[C@@H](O)[C@H](c1ccccc1)n1ccc2cc(OCc3cccc(Cl)c3)ccc21` [Example 9, (1S,2R)-1-{5-[(3-chlorobenzyl)oxy]-1H-indol-1-yl}-3-(methylamino)-1-phenylpropan-2-ol hydrochloride] returned an EC50 of 89 nM. Further, the inhibition at 1 µM on human 5-HT2A receptor was 39%.

What is called IC50 is the concentration that gives 50% inhibition. `NC[C@@H](O)[C@H](c1ccccc1)n1ccc2cc(OCc3ccccc3)ccc21` [Example 82, (1S,2R)-3-amino-1-[5-(benzyloxy)-1H-indol-1H-yl]-1-phenylpropan-2-ol hydrochloride] displayed an EC50 on human hNET of 279 nM. Further, the IC50 at human 5-HT2A receptor came to 796 nM.

As for `CNC[C@@H](O)[C@H](c1ccccc1)n1ccc2cccc(-c3ccccc3)c21` [Example 23, (1S,2R)-3-(methylamino)-1-phenyl-1-(7-phenyl-1H-indol-1-yl)propan-2-ol hydrochloride], the inhibition at 1 µM at human hNET was found to be 48%. Also, the concentration for half-maximal inhibition (IC50) at human 5-HT2A receptor turned out to be 2600 nM.

Take `CNC[C@@H](O)[C@H](c1ccccc1)n1ccc2c(Oc3ccccc3)cccc21` [Example 20, (1S,2R)-3-(methylamino)-1-[4-(phenoxy)-1H-indol-1-yl]-1-phenylpropan-2-ol hydrochloride]: the EC50 at human hNET came to 227 nM. Further, the inhibition at 1 µM at human 5-HT2A receptor stood at 30%.

As to `CNC[C@@H](O)[C@H](c1ccccc1)N1C(=O)C2(CCCCC2)c2ccc(C#N)cc21` [Example 108, 1′-[(1S,2R)-2-hydroxy-3-(methylamino)-1-phenylpropyl]-2′-oxo-1′,2′-dihydrospiro[cyclohexane-1,3′-indole]-6′-carbonitrile hydrochloride], the EC50 on human hNET is 1260 nM. Also, the inhibition at 1 µM at human 5-HT2A receptor came out at 11%.

Consider `CNC[C@@H](O)[C@H](c1ccccc1)n1ccc2ccc(OCc3ccccc3)cc21` [Example 3, (1S,2R)-1-[6-(benzyloxy)-1H-indol-1-yl]-3-(methylamino)-1-phenylpropan-2-ol hydrochloride], for which the values for the inhibition at 1 µM on human hNET and at human 5-HT2A receptor were 2% and 39%, respectively.

Take `CC(C)NC[C@@H](O)[C@H](c1ccccc1)N1C(=O)C2(CCCCC2)c2ccc(F)cc21` [Example 97, 6′-fluoro-1′-[(1S,2R)-2-hydroxy-3-(isopropylamino)-1-phenylpropyl]spiro[cyclohexane-1,3′-indol]-2′(1′H)-one hydrochloride]: the inhibition at 1 µM worked out at 0% on human hNET and 44% at human 5-HT2A receptor.

Turning to `CNC[C@@H](O)[C@H](c1ccccc1)N1C(=O)C2(CCCCC2)c2ccc(OC)cc21` [Example 106, 1′-[(1S,2R)-2-hydroxy-3-(methylamino)-1-phenylpropyl]-6′-methoxyspiro[cyclohexane-1,3′-indol]-2′(1′H)-one hydrochloride], the EC50 at human hNET was 908 nM. The IC50 on human 5-HT2A receptor stood at 615 nM.

In turn, `CNC[C@@H](O)[C@H](c1ccccc1)n1ccc2cccc(Oc3ccccc3)c21` [Example 81, (1S,2R)-3-(methylamino)-1-(7-phenoxy-1H-indol-1-yl)-1-phenylpropan-2-ol hydrochloride] registered an EC50 on human hNET of 1020 nM. In addition, the IC50 on human 5-HT2A receptor was found to be 372 nM.

Molecule `CNC[C@@H](O)[C@H](c1ccccc1)n1ccc2cc(NC(=O)c3cccc(Cl)c3)ccc21` [Example 73, 3-Chloro-N-{1-[(1S,2R)-2-hydroxy-3-(methylamino)-1-phenylpropyl]-1H-indol-5-yl}benzamide hydrochloride] had an EC50 at human hNET of 91 nM. Also, the IC50 on human 5-HT2A receptor worked out at 625 nM.

As to `CNC[C@@H](O)[C@H](c1ccccc1)N1C(=O)C2(CCCCC2)c2ccc(Cl)cc21` [Example 28, 6′-Chloro-1′-[(1S,2R)-2-hydroxy-3-(methylamino)-1-phenylpropyl]spiro[cyclohexane-1,3′-indol]-2′(1′H)-one hydrochloride], at human hNET, the EC50 was determined as 448 nM. The concentration for half-maximal inhibition (IC50) at human 5-HT2A receptor came out at 213 nM.

Molecule `CNC[C@@H](O)[C@H](c1ccccc1)n1ccc2cc(OCc3ccc(OC)cc3)ccc21` [Example 7, (1S,2R)-1-{5-[(4-methoxybenzyl)oxy]-1H-indol-1-yl}-3-(methylamino)-1-phenylpropan-2-ol hydrochloride] showed an EC50 at human hNET of 32 nM. Also, at human 5-HT2A receptor, the IC50 is 281 nM.
